# Measured values taken from patent US20260234135A1, “CRYSTALLINE FORMS OR SALTS OF A DEUTERATED COMPOUND” (ALEBUND PHARMACEUTICALS (HONG KONG) LIMITED, priority 2023, published 2026).
# Experiments:
# [1] = system: db/db type 2 diabetes model; assay: db/db type 2 diabetes model (body weight, serum TG, random blood glucose); details: for Serum TG levels compared with the vehicle group / Average daily body weights compared with the vehicle group: Aleglitazar 0.2 mg/kg; for Serum TG levels compared with the vehicle group: Compound 2 at different dosages; for Average daily body weights compared with the vehicle group: Day 10 to Day 15, Compound 2 0.05, 0.2, 1 mg/kg; for Level of lipid, free fatty acid and blood glucose compared with vehicle group: summary, all groups
# Description: 45 Db/db mice were evenly divided into 5 groups before the initiation of treatment based on the body weights, serum triglyceride (TG) levels, and random blood glucose levels.
# All animals were weighed daily before each dosing and treated daily for 14 consecutive days.
# All the data was imported into an Excel file and presented as Mean±SEM. Graphpad Prism 7.0 software was used for data statistical analysis by One-way or Two-way ANOVA, with P<0.05 as the criterion of significant differences.
# [2] = system: rat model of unilateral ureteral obstruction; assay: Rat model of unilateral ureteral obstruction, renal injury; details: 0.2 mg/kg oral daily, 14 treatment days
# Description: Housing temperature was maintained at 20-26° C. and humidity at 40%-60%. Rats were fed with a standard chow and allowed to access food and water ad libitum.
# The formulation was prepared twice a week.
# Vehicle or compounds were administrated by orally gavage daily. Unilateral ureteral obstruction was performed on the second day of compound treatment. Animals in model group, reference group and compound group underwent urethral ligation under isoflurane anesthesia one hour after receiving compound administration. A flank incision was cut to expose the left ureter, and a 4-0 surgical suture was used to perform two-point ligation to achieve urethral obstruction. Ureter was cut between the two ligation points. Animals in the control group were subjected to the same surgical treatment except the ligation and cut. After surgery, animals in each group continually received vehicle or compound for 12 more days, for a total of 14 treatment days.
# Rats were sacrificed after 14 days' compound treatment. The obstructed kidney was weighed and collected for histology. The tissue samples were fixed with formalin, and then paraffin embedded. The embedded tissue was sectioned and stained with hematoxylin & eosin and Masson trichrome to assess kidney structure and fibrosis.
# The multiple comparison was analyzed with the Kruskal-Wallis non-parameter test. […]
# [3] = system: rat model of hyperlipidemia induced by high cholesterol diet; assay: Rat model of hyperlipidemia induced by high cholesterol diet (serum TG, NEFA); format: in vivo, Sprague-Dawley rats; details: for Serum NEFA compared with the vehicle group / Serum TG compared with the vehicle group: 0.2 mg/kg and 0.6 mg/kg oral, after 7 days of treatment (Day 8)
# Text: 8.2.1 High cholesterol diet (ASHF4) was used to induce an animal model of hyperlipidemia in the SD rats.
# 8.2.2 The male SD rats were fed with high cholesterol diet (ASHF4, Dyet, China) for 14 days. On the day before the start of the administration (Day 0), the animals were divided into 5 groups based on body weights and serum indicators and were continually fed with the high-cholesterol diet. The treatment groups were orally dosed with either compound or vehicle while continuing the high-cholesterol diet for a total of 1 week. The animals were weighed daily before the treatment, and the compounds were given at 9:00-9:30 in the morning based on the body weight of the day.
# 8.2.3 Animal blood was collected, and serum was separated for the analysis of serum lipid indicators on the day before the treatment and at the end of the last day for the experiment.
# 8.2.4 Serum indicators of triglyceride (TG) and free fatty acid (NEFA) were determined by an automatic blood biochemical analyzer.
# [4] = 7-day repeated oral gavage, body weights of ICR mice; format: in vivo; details: for Weight Gain (g) compared with Day 0: n = 10
# Text: 50 male ICR mice aged 6-8 weeks; source: Laboratory Animal Business Department, Shanghai Institute of Planned Parenthood Research.
# After 3 days of acclimatization, ICR mice were grouped according to their body weights. The day of grouping is designated as Day 0. […] The animals were weighed and recorded daily.
# [5] = phase 3 clinical trials; cited from earlier work
# [6] = system: db/db type 2 diabetes model; assay: Oral glucose tolerance test (OGTT) in db/db animals; format: in vivo, db/db mice; details: for OGTT blood glucose levels at each time point compared with the vehicle group: within 120 minutes, different dosages
# Description: At the end of the experiment, oral glucose tolerance tests were carried out on the db/db animals treated by different compounds. […] .
# [7] = system: diabetic nephropathy model; assay: Diabetic nephropathy pharmacodynamic model (uninephrectomized db/db mice); format: in vivo, db/db: BLKS male mice
# Text: At the age of 6 weeks, db/db mice were anesthetized with 2.5% […] and subjected to uninephrectomy with removal of right kidney. Buprenorphine was applied after surgery.
# 11.1.2 Procedure. Two weeks after surgery, db/db mice were randomly assigned into 5 groups. Wild type mice were used for the control animals. […] Compounds were orally administrated once per day for 10 weeks.
# At the 5th and 9th week after compound administration, mice were placed in metabolic cages for urine collection. Albumin level was measured for 24 hr albumin excretion calculation. At the 10th week after treatment, the animals were sacrificed for kidney dissection. The kidney was fixed in 10% neutral buffed formalin, then paraffin-embedded for histopathological analysis. Glomerulosclerosis was assessed by evaluating glomerular basement membrane, mesangial expansion, nodular sclerosis and glomerulosclerosis. Severity was graded as follows: 0: normal; 1: Glomerular basement membrane thickening: isolated glomerular basement membrane thickening and only mild, nonspecific changes by light microscopy; 2: Mesangial expansion mild (IIa) or severe (IIb): glomeruli with mild or severe mesangial expansion but without nodular sclerosis or global glomerulosclerosis in more than 50% of glomeruli; 3: Nodular sclerosis: at least one glomerulus with nodular increase in mesangial matrix; 4: Advanced diabetic glomerulosclerosis: more than 50% global glomerulosclerosis with other clinical or pathological evidence that sclerosis is attributable to diabetic nephropathy. Renal tubular injury was scored as follows: 0: no obvious lesions; 1: up to 25% involvement of tubular lesion; 2: lesion in 25% to 50% of renal tubular; 3: 50% to 75% of renal tubular lesion and grade 4: >75% tubular lesion.
# Graphpad 8.0 software was used for statistical analysis. The difference between the values were analyzed with one-way ANOVA. The difference between histopathological score was analyzed with Kruskal-Wallis nonparameter test. All values were compared with the group 2.
# [8] = Inter-conversion relationship (slurry competition) and form stability of free acid forms; details: storage at RT for 1 month, XRPD
# [9] = Day 8, 0.2 mg/kg oral QDx7 days
# [10] = Day 8, 0.6 mg/kg oral QDx7 days
# [11] = 0.2 mg/kg oral QDx7 days, Day 1, ICR mice
# [12] = 0.2 mg/kg oral QDx7 days, Day 2, ICR mice
# [13] = 0.2 mg/kg oral QDx7 days, Day 3, ICR mice
# [14] = 0.2 mg/kg oral QDx7 days, Day 4, ICR mice
# [15] = 0.2 mg/kg oral QDx7 days, Day 5, ICR mice
# [16] = 0.2 mg/kg oral QDx7 days, Day 6, ICR mice
# [17] = 0.2 mg/kg oral QDx7 days, Day 7, ICR mice
# [18] = 1 mg/kg oral QDx7 days, Day 1, ICR mice
# [19] = 1 mg/kg oral QDx7 days, Day 2, ICR mice
# [20] = 1 mg/kg oral QDx7 days, Day 3, ICR mice
# [21] = 1 mg/kg oral QDx7 days, Day 4, ICR mice
# [22] = 1 mg/kg oral QDx7 days, Day 5, ICR mice
# [23] = 1 mg/kg oral QDx7 days, Day 6, ICR mice
# [24] = 1 mg/kg oral QDx7 days, Day 7, ICR mice
# [25] = 0.2 mg/kg (Aleglitazar P<0.001; Compound 2 P<0.01)
smiles,measurement,setting,value
"CO[C@@H](Cc1ccc(OCCc2nc(-c3ccccc3)oc2C)c2ccsc12)C(=O)O [Aleglitazar, aleglitazar]",Serum TG levels compared with the vehicle group,[1]; Day 6 and Day 12,significantly lower
same,Random blood glucose reduction compared with the vehicle group,"[1]; Day 7, 0.2 mg/kg",reached statistical significance
same,Average daily body weights compared with the vehicle group,[1],significantly higher
same,"Level of lipid, free fatty acid and blood glucose compared with vehicle group",[1],significantly decreased
same,Total score of renal focal lesions compared to the model group,[2],did not achieve statistically significant improvement
same,Serum NEFA compared with the vehicle group,[3],significantly reduce
same,Serum TG compared with the vehicle group,[3],significantly reduce
same,"serum TG, significance compared with the first group (vehicle), One-way ANOVA",[3]; [9],* (*p < 0.05)
same,"serum TG, significance compared with the first group (vehicle), One-way ANOVA",[3]; [10],**** (****p < 0.0001)
same,Weight Gain (g) compared with Day 0,[4]; [11],0.48 ± 0.27 g
same,Weight Gain (g) compared with Day 0,[4]; [12],1.66 ± 0.39 g
same,Weight Gain (g) compared with Day 0,[4]; [13],2.62 ± 0.42 g
same,Weight Gain (g) compared with Day 0,[4]; [14],3.50 ± 0.42 g
same,Weight Gain (g) compared with Day 0,[4]; [15],3.92 ± 0.4 g
same,Weight Gain (g) compared with Day 0,[4]; [16],4.81 ± 0.37 g
same,Weight Gain (g) compared with Day 0,[4]; [17],5.39 ± 0.56 g
same,"Weight gain, significance compared with vehicle, One-way ANOVA","[4]; 0.2 mg/kg, Day 4",* (* p < 0.05)
same,Daily average weight gain compared with the vehicle group,"[4]; 0.2 mg/kg, Day 4 and Day 5",significantly higher
same,"Weight gain, significance compared with vehicle, One-way ANOVA","[4]; 0.2 mg/kg, Day 5",* (* p < 0.05)
same,Weight Gain (g) compared with Day 0,[4]; [18],0.5 ± 0.2 g
same,Weight Gain (g) compared with Day 0,[4]; [19],1.64 ± 0.26 g
same,Weight Gain (g) compared with Day 0,[4]; [20],2.61 ± 0.51 g
same,Weight Gain (g) compared with Day 0,[4]; [21],3.33 ± 0.54 g
same,Weight Gain (g) compared with Day 0,[4]; [22],3.86 ± 0.49 g
same,Weight Gain (g) compared with Day 0,[4]; [23],4.98 ± 0.52 g
same,Weight Gain (g) compared with Day 0,[4]; [24],5.34 ± 0.50 g
same,Daily average weight gain compared with the vehicle group,"[4]; 1 mg/kg, Day 6",significantly higher
same,"Weight gain, significance compared with vehicle, One-way ANOVA","[4]; 1 mg/kg, Day 6",* (* p < 0.05)
same,Blood sugar and blood lipid levels,[5],effectively reduce blood sugar and blood lipid levels
same,Heart failure risk,[5],a certain degree of heart failure risk
same,OGTT AUC0-120 min compared with the vehicle group,[6]; [25],significantly lower
same,OGTT blood glucose levels at each time point compared with the vehicle group,[6],significantly reduced
[2H]C([2H])(Cc1nc(-c2ccccc2)oc1C)Oc1ccc(C[C@H](OC)C(=O)O)c2sccc12 [Compound 2],"Serum TG, rank of effect among groups","[1]; 1 mg/kg (Group 6), Day 6 and Day 12",largest effect
same,statistical difference (p) of the blood glucose level between treatment group and vehicle group,"[1]; 0.2 mpk, Day 0, db/db mice",p > 0.05
same,Serum TG levels compared with the vehicle group,[1]; Day 6 and Day 12,significantly lower
same,Random blood glucose reduction compared with the vehicle group,"[1]; Day 7, 1 mg/kg",reached statistical significance
same,Average daily body weights compared with the vehicle group,[1],significantly higher
same,Random blood glucose lowering compared with the vehicle group,"[1]; Day 14, 0.05 mg/kg",did not reach statistical significance
same,"Random blood glucose lowering vs vehicle, compared with Day 7","[1]; Day 14, 1 mg/kg",more pronounced effect of blood glucose lowering
same,Effect on lowering blood glucose compared with Aleglitazar,[1]; overall,slightly weaker effect
same,"Level of lipid, free fatty acid and blood glucose compared with vehicle group",[1],significantly decreased
same,Total score of renal focal lesions compared to the model group,[2],significantly improved
same,24-hour urinary albumin,"[7]; 5th and 9th weeks after compound administration, 0.1, 0.3, 1 mg/kg oral once per day",significantly decreased
same,Glomerular damage and glomerular hypertrophy,[7]; 10 weeks treatment,suppressed the glomerular damage and ameliorate the glomerular hypertrophy
same,Renal tubular injury,[7]; all dosage levels,improved the tubular injury at some extend
same,Glomerular volume,[7]; high dose (1 mg/kg),statistically significantly reduced
same,Glomerulosclerosis histopathological score,[7]; high dose (1 mg/kg),statistically significantly reduced
same,Serum NEFA compared with the vehicle group,[3],significantly reduce
same,Serum TG compared with the vehicle group,[3],significantly reduce
same,Serum NEFA compared with Aleglitazar,"[3]; 0.2 mg/kg, T-test, P<0.05",significantly reduce
same,Serum TG compared with Aleglitazar,"[3]; 0.2 mg/kg, T-test, P<0.05",significantly reduce
same,"serum TG, significance compared with the first group (vehicle), One-way ANOVA",[3]; [9],*** (***p < 0.001)
same,"serum TG, significance compared with the first group (vehicle), One-way ANOVA",[3]; [10],*** (***p < 0.001)
same,Weight Gain (g) compared with Day 0,[4]; [11],0.45 ± 0.28 g
same,Weight Gain (g) compared with Day 0,[4]; [12],1.42 ± 0.22 g
same,Weight Gain (g) compared with Day 0,[4]; [13],2.56 ± 0.23 g
same,Weight Gain (g) compared with Day 0,[4]; [14],2.96 ± 0.23 g
same,Weight Gain (g) compared with Day 0,[4]; [15],3.73 ± 0.34 g
same,Weight Gain (g) compared with Day 0,[4]; [16],4.66 ± 0.39 g
same,Weight Gain (g) compared with Day 0,[4]; [17],5.08 ± 0.42 g
same,Daily weight gain compared with the vehicle group,"[4]; 0.2 mg/kg, throughout the study",no significant difference
same,Weight Gain (g) compared with Day 0,[4]; [18],0.4 ± 0.17 g
same,Weight Gain (g) compared with Day 0,[4]; [19],1.57 ± 0.26 g
same,Weight Gain (g) compared with Day 0,[4]; [20],2.71 ± 0.19 g
same,Weight Gain (g) compared with Day 0,[4]; [21],3.61 ± 0.19 g
same,Weight Gain (g) compared with Day 0,[4]; [22],3.96 ± 0.29 g
same,Weight Gain (g) compared with Day 0,[4]; [23],4.84 ± 0.4 g
same,Weight Gain (g) compared with Day 0,[4]; [24],5.44 ± 0.36 g
same,"Weight gain, significance compared with vehicle, One-way ANOVA","[4]; 1 mg/kg, Day 4",** (**p < 0.01)
same,Average daily weight gain compared with the vehicle group,"[4]; 1 mg/kg, Day 4 and 5",significantly higher
same,"Weight gain, significance compared with vehicle, One-way ANOVA","[4]; 1 mg/kg, Day 5",* (* p < 0.05)
same,OGTT blood glucose compared with the vehicle group,"[6]; 0.05 mg/kg (Group 4), all time points",trend of decrease but did not reach statistical significance
same,OGTT AUC0-120 min compared with the vehicle group,[6]; [25],significantly lower
same,OGTT AUC0-120 min compared with the vehicle group,"[6]; 1 mg/kg, P<0.0001",significantly lower
same,OGTT AUC0-120 min compared with Aleglitazar,[6]; same dose level (0.2 mg/kg),higher
same,OGTT blood glucose levels at each time point compared with the vehicle group,[6],significantly reduced
[2H]C([2H])(Cc1nc(-c2ccccc2)oc1C)Oc1ccc(C[C@H](OC)C(=O)O)c2sccc12 [free acid Form D],Form after storage,[8],converted to free acid Form E
